Results published in US11014908B2, “Chemical compounds” (Pfizer Inc., priority 2018, dated 2021).

What was measured:
HbS = target: T1, HbS (Homo sapiens, UniProt P68871+P69905, E7V); assay: 'R'-'T' assay (conversion of oxy HbS to deoxy HbS under deoxygenating conditions); assay type: biochemical; settings: 50% inhibition of HbS 'R'-'T' conversion; 3 uM HbS, <1% O2
T1 construct: HbS was obtained from the blood of homozygous S/S patients; from tissue; host or cells: red blood cells of homozygous S/S patients
Experimental: Conversion from oxy (R, relaxed state) to deoxy (T, tense state) HbS in the presence of compound was performed to determine the ability of compounds to stabilize the oxy (R) state under deoxygenating conditions. The assay run was similar to the ‘Oxygen dissociation assay’ described in Oksenberg et al, Br J Haematology, 2016, 175, 141-153.
Assay ready compound plates were prepared by first preparing a master serial dilution plate from a 30 mM initial compound stock in 100% DMSO. From this master serial dilution plate, 167 nL of the desired compound concentration was delivered to the assay ready plates using acoustical dispensing. Plates were frozen at −20° C. until needed. Purified HbS-O2 (i.e. oxy HbS) was diluted to 3 uM in 100 mM potassium phosphate buffer, pH=7.4. 50 uL of 3 uM stock solution was added to each well of the assay ready plate and mechanically mixed eight times. Following mixing the plates were covered and incubated at room temperature for one hour with moderate shaking. Following incubation, the plates were placed in a deoxygenated environment (<1% O2) for two hours, and the conversion to deoxy HbS monitored as a function of time. Oxygenated and deoxygenated forms of hemoglobin were detected using the absorbance of the Soret peaks at 415 and 430 nm respectively, and absorbance measurements (optical density, OD) were taken at 0, 90 and 120 minutes. Background absorbance for correction was collected at 700 nm.
Data were analyzed by first subtracting baseline absorbance at 700 nm from 415 nm and 430 nm data at each timepoint, and then taking the ratio of 415/430 nm data (Ratio=[(OD415−OD700)/(OD430−OD700)]. The effect at each timepoint was calculated using the ratios from the previous calculation at time 0 and each time point of interest (Effect^time x=Ratio^time x/Ratio^time 0). Percent effect was calculated by comparing the effects of compound versus HbS only with the effects observed by the positive control compound tucaresol (percent effect=[(effect^time x compound−effect^time x HbS)/(effect^time x tucaresol−effect^time x HbS)]×100). Data were reported as the percent effect for a single point. Calculations to determine the concentration of compound for 50% inhibition (IC50 (uM)) of the HbS ‘R’-‘T’ conversion were based on the percent effect at varying compound concentration.

[1] = target: T2, purified sickle cell hemoglobin (HbS) (Homo sapiens, UniProt P68871+P69905, E7V); assay: Binding affinity to purified HbS by Surface Plasmon Resonance (SPR); settings: crosslinked biotinylated HbS, 1:1 binding model
T2 construct: HbS was obtained from the blood of homozygous S/S patients; from tissue; host or cells: red blood cells of homozygous S/S patients
Experimental: Binding Affinity, Kd (uM)
The binding affinity for compounds to purified sickle cell hemoglobin (HbS) was determined using Surface Plasmon Resonance (SPR). Patient Sickle Cell blood was obtained from Boston Children's Hospital in accordance with Institutional Review Board protocols. HbS was obtained from the blood of homozygous S/S patients, and purified using the method described in: Antonini and Brunori, Hemoglobin and Myoglobin in their Reactions with Ligands. Amsterdam, London, North-Holland Publishing Company, 1971. Whole blood was separated into red blood cell and plasma components by centrifugation, after which the plasma was decanted and discarded. Packed red blood cells were washed with normal saline (0.9% NaCl) and then lysed by 2:1 dilution with cold deionized water. The hemolysate was centrifuged to remove cellular debris, and further purified with the addition of Drabkin's Buffer (2.8 M potassium phosphate), and centrifugation with Celite®. Organic phosphates (2,3-BPG) were removed via gel filtration with Sephadex® G-25. HbS and wild-type hemoglobin, hemoglobin A (HbA), were separated by […], using diethylaminoethyl (DEAE)-Sepharose® fast flow, and eluted using a pH gradient from pH 8.5-pH 7.5. Purity of the resulting HbS and HbA was determined by native gel electrophoresis and HbS fractions used further.
To stabilize the tetrameric structure of hemoglobin, HbS was crosslinked between the beta subunits (Lys82-Lys82) using bis(3,5-dibromosalicyl) fumarate, as described in: Shibayama N. et al, J Am Chem Soc 2014, 136, 13, 5097-5105 and Shibayama N. et al, Biochemistry 1991, 39, 33, 8158-8165). Crosslinked HbS was subsequently biotynylated and captured on a custom made Streptavidin sensor to achieve protein density of 4000 to 5000 resonance units (RUs) on the surface. Compound binding to HbS using SPR was tested on Sierra Sensors MASS-1 instrument. The running buffer contained 100 mM Potassium Phosphate, pH 7.5, 0.005% Tween-20, 1 mM ethylenediaminetetraacetic acid (EDTA), 0.1 mg/mL bovine serum albumin with 1% DMSO. Compound samples were injected at a flow rate of 30 μL/min for 2 minutes association and at least 5 minutes of dissociation time. A 2- or 3-fold dilution series containing at least 4 concentrations were tested for each compound. The dose range was selected based on the activity of the compounds in biochemical assays, when available. Multiple blank injections of running buffer were run before and after each compound series to allow blank subtraction for compound data in the analysis software. Positive controls were run in each experiment to monitor and maintain the activity of HbS on the surface. A DMSO curve was run at the beginning of each data set to apply an excluded volume correction to the data during analysis. The data were processed and analyzed using Sierra Sensors and Scrubber 2.0 software. The binding affinities (dissociation constant Kd) were calculated by fitting the sensorgrams to a 1:1 binding model.

Row | Structure (SMILES) | IC50 (HbS) [nM] | Kd [1] [nM]
1 | C[C@H](Oc1cc2cc(CO)ccc2nc1N)c1nc(O)ccc1-n1cccn1 [Example 49, 6-[(1S)-1-{[2-amino-6-(hydroxymethyl)quinolin-3-yl]oxy}ethyl]-5-(1H-pyrazol-1-yl)pyridin-2-ol] | 6390 | 178
2 | C[C@H](Oc1cc2cc(C(C)(C)O)ccc2nc1N)c1nc(O)ccc1-n1cccn1 [Example 50, 6-[(1S)-1-{[2-amino-6-(2-hydroxypropan-2-yl)quinolin-3-yl]oxy}ethyl]-5-(1H-pyrazol-1-yl)pyridin-2-ol] | 100000 | 1330
3 | C[C@H](Oc1cc2cc(F)c(Cl)cc2nc1N)c1ncccc1-n1cccn1 [Example 29, 7-chloro-6-fluoro-3-{(1S)-1-[3-(1H-pyrazol-1-yl)pyridin-2-yl]ethoxy}quinolin-2-amine] | 4580 | 67
4 | C[C@H](O)c1ccc2nc(N)c(O[C@@H](C)c3nc(O)ccc3-n3cccn3)cc2c1 [Example 52, 6-[(1S)-1-({2-amino-6-[(1S)-1-hydroxyethyl]quinolin-3-yl}oxy)ethyl]-5-(1H-pyrazol-1-yl)pyridin-2-ol] | 100000 | 10000
5 | C[C@H](Oc1cc2cc(C(N)=O)c(F)cc2nc1N)c1ncc(F)cc1-n1cccn1 [Example 34, 2-amino-7-fluoro-3-{(1S)-1-[5-fluoro-3-(1H-pyrazol-1-yl)pyridin-2-yl]ethoxy}quinoline-6-carboxamide] | 5530 | 121
6 | C[C@H](Oc1cc2cc(F)ccc2nc1N)c1cc(C(=O)NCCCO)ccc1-n1cccn1 [Example 13, 3-{(1S)-1-[(2-amino-6-fluoroquinolin-3-yl)oxy]ethyl}-N-(3-hydroxypropyl)-4-(1H-pyrazol-1-yl)benzamide] | 4330 | 65
7 | C[C@H](Oc1cc2cc(C(N)=O)ccc2nc1N)c1nc(OCCO)ccc1-n1cccn1 [Example 42, 2-amino-3-{(1S)-1-[6-(2-hydroxyethoxy)-3-(1H-pyrazol-1-yl)pyridin-2-yl]ethoxy}quinoline-6-carboxamide] | 5260 | 142
8 | C[C@H](Oc1cc2cc(F)ccc2nc1N)c1cc(NS(C)(=O)=O)ccc1-n1cccn1 [Example 18, N-[3-{(1S)-1-[(2-amino-6-fluoroquinolin-3-yl)oxy]ethyl}-4-(1H-pyrazol-1-yl)phenyl]methanesulfonamide] | 7160 | 194
9 | Cc1cc2nc(N)c(O[C@@H](C)c3ncc(F)cc3-n3cccn3)cc2cn1 [Example 36, 3-{(1S)-1-[5-fluoro-3-(1H-pyrazol-1-yl)pyridin-2-yl]ethoxy}-7-methyl-1,6-naphthyridin-2-amine] | 7710 | 160
10 | C[C@H](Oc1cc2cc(F)ccc2nc1N)c1cc(S(N)(=O)=O)ccc1-n1cccn1 [Example 7, 3-{(1S)-1-[(2-amino-6-fluoroquinolin-3-yl)oxy]ethyl}-4-(1H-pyrazol-1-yl)benzenesulfonamide] |  | 126

Now those with a lower Kd [1], led by results:

Row | IC50 (HbS) [nM] | Kd [1] [nM] | Structure (SMILES)
11 | 4630 | 20 | C[C@H](Oc1cc2c(F)ccc(F)c2nc1N)c1ncc(F)cc1-n1cccn1 [Example 43, 5,8-difluoro-3-{(1S)-1-[5-fluoro-3-(1H-pyrazol-1-yl)pyridin-2-yl]ethoxy}quinolin-2-amine]
12 | 4500 | 20 | C[C@H](Oc1cc2cc(F)ccc2nc1N)c1cc(C(N)=O)c(F)cc1-n1cccn1 [Example 1, 5-{(1S)-1-[(2-amino-6-fluoroquinolin-3-yl)oxy]ethyl}-2-fluoro-4-(1H-pyrazol-1-yl)benzamide]
13 | 3890 | 63 | C[C@H](Oc1cc2cc(F)ccc2nc1N)c1cc(OCC(=O)O)ccc1-n1cccn1 [Example 15, [3-{(1S)-1-[(2-amino-6-fluoroquinolin-3-yl)oxy]ethyl}-4-(1H-pyrazol-1-yl)phenoxy]acetic Acid]
14 | 4300 | 34 | C[C@H](Oc1cc2cc(F)ccc2nc1N)c1ncc(F)cc1-n1cccn1 [Example 33, 6-fluoro-3-{(1S)-1-[5-fluoro-3-(1H-pyrazol-1-yl)pyridin-2-yl]ethoxy}quinolin-2-amine]
15 | 4670 | 10 | C[C@H](Oc1cc2cc(F)cc(F)c2nc1N)c1cc2c(cnn2CC(=O)O)cc1-n1cccn1 [Example 69, [6-{(1S)-1-[(2-amino-6,8-difluoroquinolin-3-yl)oxy]ethyl}-5-(1H-pyrazol-1-yl)-1H-indazol-1-yl]acetic Acid]
16 | 6170 | 15 | CC(Oc1cc2cc(C(N)=O)c(F)cc2nc1N)c1cc2[nH]ncc2cc1-n1cccn1 (stereo in doubt) [Example 65, 2-amino-7-fluoro-3-{(1R)-1-[5-(1H-pyrazol-1-yl)-1H-indazol-6-yl]ethoxy}quinoline-6-carboxamide]
17 | 4300 | 41 | C[C@H](Oc1cc2cc(F)ccc2nc1N)c1cc(C(=O)N[C@H]2C[C@H](O)C2)ccc1-n1cccn1 [Example 14, 3-{(1S)-1-[(2-amino-6-fluoroquinolin-3-yl)oxy]ethyl}-N-(trans-3-hydroxycyclobutyl)-4-(1H-pyrazol-1-yl)benzamide]
18 |  | 40 | C[C@H](Oc1cc2cc(C(N)=O)ccc2nc1N)c1nc2[nH]ncc2cc1-n1cccn1 [Example 62, 2-amino-3-{(1S)-1-[5-(1H-pyrazol-1-yl)-1H-pyrazolo[3,4-b]pyridin-6-yl]ethoxy}quinoline-6-carboxamide]
19 | 5680 | 53 | COc1ccc(-n2cccn2)c([C@H](C)Oc2cc3cc(F)cc(F)c3nc2N)n1 [Example 56, 6,8-difluoro-3-{(1S)-1-[6-methoxy-3-(1H-pyrazol-1-yl)pyridin-2-yl]ethoxy}quinolin-2-amine]
20 | 5050 | 14 | C[C@H](Oc1cc2cc(F)ccc2nc1N)c1cc(-c2noc(=O)[nH]2)ccc1-n1cccn1 [Example 17, 3-[3-{(1S)-1-[(2-amino-6-fluoroquinolin-3-yl)oxy]ethyl}-4-(1H-pyrazol-1-yl)phenyl]-1,2,4-oxadiazol-5(4H)-one]
21 | 4280 | 59 | C[C@H](Oc1cc2cc(C(N)=O)ccc2nc1N)c1cc2c(cnn2CCO)cc1-n1cccn1 (single isomer, unassigned) [Example 74]
22 |  | 36 | C[C@H](Oc1cc2cc(F)cc(F)c2nc1N)c1cc(-c2noc(=O)[nH]2)ccc1-n1cccn1 [Example 80, (S)-3-(3-(1-((2-amino-6,8-difluoroquinolin-3-yl)oxy)ethyl)-4-(1H-pyrazol-1-yl)phenyl)-1,2,4-oxadiazol-5(4H)-one]
